Assay results taken from patent US10071984B2, “Histone demethylase inhibitors” (Celgene Quanticel Research, Inc., priority 2014, dated 2018).
pIC50: −log10 of the molar value.

How the values were obtained:
Format in all cases: biochemical
FBXL10 = FBXL10 (Homo sapiens (Human), UniProt Q8NHM5); experiment: FBXL10 in vitro enzyme inhibition assay (AlphaScreen); conditions: 0.3 nM FBXL10, H3K36me2-biotin peptide
Source text: (§1) This assay determines the ability of a test compound to inhibit FBXL11, FBXL10, and PHF8 demethylase activity. Baculovirus expressed FBXL11 (GenBank Accession #NM_012308, AA1-1162) was purchased from BPS Bioscience (Cat#50102). Baculovirus expressed FBXL10 (GenBank Accession #NM_032590, AA 1-650) was purchased from BPS Bioscience (Cat #50120). Baculovirus expressed PHF8 (GenBank Accession NP_055922.1) was purchased from Active Motif (Cat#31435).
(§2) The ability of test compounds to inhibit the activity of FBXL10 was determined in 384-well plate format under the following reaction conditions: 0.3 nM FBXL10, 30 nM H3K36me2-biotin labeled peptide (Anaspec cat #64442), 0.2 μM alpha-ketoglutaric acid in assay buffer of 50 mM HEPES, pH7.3, 0.005% Brij35, 0.5 mM TCEP, 0.2 mg/ml BSA, 50 μM sodium L-ascorbate, 5 μM ammonium iron(II) sulfate. Reaction product is determined quantitatively by AlphaScreen detection after the addition of detection reagents anti-H3K36me1 antibody, AlphaScreen® Streptavidin-coated Donor beads, and AlphaScreen® Protein A Acceptor beads in 50 mM HEPES, pH7.3, 10 mM NaCl, 0.005% Brij35, 5 mM EDTA, 2 mg/ml BSA to final 10 μg/ml beads.
(§3) The assay reaction was initiated by the following: 3 μl of the mixture of 90 nM H3K36me2-biotin labeled peptide and 0.6 μM alpha-ketoglutaric acid with 3 μl of 11-point serial diluted inhibitor in 3% DMSO are added to each well of 384 well Proxiplate (Perkin Elmer), followed by the addition of 3 μl of 0.9 nM FBXL10 to initiate the reaction. The reaction mixture is incubated at room temperature for 1 hour, and terminated by the addition of 3 μl of appropriate dilution of anti H3K36me1 antibody in 50 mM HEPES, pH7.3, 10 mM NaCl, 0.005% Brij35, 5 mM EDTA, 2 mg/ml BSA. Plates will then incubated at room temperature for 40 minutes, followed by addition of 3 ul of 50 μg/ml AlphaScreen® Streptavidin-coated Donor beads and AlphaScreen® Protein A Acceptor beads in 50 mM HEPES, pH7.3, 10 mM NaCl, 0.005% Brij35, 5 mM EDTA, 2 mg/ml BSA. Plates will then be read by EnVision Multilabel Reader in AlphaScreen mode after minimum 2 hour incubation at room temperature. The AlphaScreen signal for each well is used to determine inhibition constant (IC50).
(§4) The ability of the compounds disclosed herein to inhibit demethylase activity was quantified and the respective IC50 value was determined.

FBXL11 = FBXL11 (Homo sapiens (Human), UniProt Q9Y2K7); experiment: FBXL11 in vitro enzyme inhibition assay (AlphaScreen); conditions: 0.15 nM FBXL11, H3K36me2-biotin peptide
Source text: as §1
as §2, with “FBXL11” for “FBXL10”, “0.15” for “0.3”, “FBXL11,” for “FBXL10,”
as §3, with “0.45” for “0.9”, “FBXL11” for “FBXL10”
The ability of the compounds disclosed herein to inhibit demethylase activity was quantified and the respective IC50 value was determined. Table 3 provides the IC50 values of various compounds disclosed herein.

PHF8 = PHF8 (Homo sapiens (Human), UniProt Q9UPP1); experiment: PHF8 in vitro enzyme inhibition assay (TR-FRET); conditions: 3 nM PHF8, H3K9me1-biotin peptide
Source text: as §1
The ability of test compounds to inhibit the activity of PHF8 was determined in 384-well plate format under the following reaction conditions: 3 nM PHF8, 200 nM H3K9me1-biotin labeled peptide (Anaspec cat #64358), 0.5 μM alpha-ketoglutaric acid in assay buffer of 50 mM HEPES, pH7.3, 0.005% Brij35, 0.5 mM TCEP, 0.2 mg/ml BSA, 50 μM sodium L-ascorbate, and 5 μM ammonium iron(II) sulfate. Reaction product was determined quantitatively by TR-FRET after the addition of detection reagent Phycolink Streptavidin-allophycocyanin (Prozyme) and Europium-anti-unmodified-histone H3 lysine 9/lysine27 (H3K9/K27) antibody (PerkinElmer) in the presence of 5 mM EDTA in LANCE detection buffer (PerkinElmer) at a final concentration of 25 nM and 0.5 nM, respectively.
The assay reaction was initiated by the following: 2 μl of the mixture of 600 nM H3K9me1-biotin labeled peptide and 1.5 μM alpha-ketoglutaric acid with 2 μl of 11-point serial diluted inhibitor in 3% DMSO were added to each well of the plate, followed by the addition of 2 μl of 9 nM PHF8 to initiate the reaction. The reaction mixture was incubated at room temperature for 15 minutes, and terminated by the addition of 6 μl of 5 mM EDTA in LANCE detection buffer containing 50 nM Phycolink Streptavidin-allophycocyanin and 1 nM Europium-anti-unmodified H3K9/K27 antibody. Plates were read by EnVision Multilabel Reader in TR-FRET mode (excitation at 320 nm, emission at 615 nm and 665 nm) after 1 hour incubation at room temperature. A ratio was calculated (665/615) for each well and fitted to determine inhibition constant (IC50).
as §4

Chain of FBXL10 (Q8NHM5 1-650): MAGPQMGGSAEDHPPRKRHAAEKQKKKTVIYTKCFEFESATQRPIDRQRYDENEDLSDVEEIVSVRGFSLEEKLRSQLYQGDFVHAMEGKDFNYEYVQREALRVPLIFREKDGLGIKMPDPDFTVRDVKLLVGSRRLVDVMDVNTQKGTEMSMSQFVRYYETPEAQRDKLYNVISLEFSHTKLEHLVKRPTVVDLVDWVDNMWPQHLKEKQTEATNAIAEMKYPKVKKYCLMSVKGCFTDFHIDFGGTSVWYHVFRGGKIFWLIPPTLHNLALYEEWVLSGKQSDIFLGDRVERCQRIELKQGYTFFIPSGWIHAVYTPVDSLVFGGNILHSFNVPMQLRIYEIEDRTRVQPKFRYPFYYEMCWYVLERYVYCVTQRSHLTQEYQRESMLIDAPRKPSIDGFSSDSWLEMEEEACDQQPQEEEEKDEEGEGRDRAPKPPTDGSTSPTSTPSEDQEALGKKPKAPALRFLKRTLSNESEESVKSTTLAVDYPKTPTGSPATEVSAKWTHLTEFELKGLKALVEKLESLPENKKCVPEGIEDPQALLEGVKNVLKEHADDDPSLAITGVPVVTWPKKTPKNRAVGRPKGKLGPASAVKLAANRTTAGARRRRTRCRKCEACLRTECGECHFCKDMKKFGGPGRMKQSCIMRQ
Chain of FBXL11 (Q9Y2K7 whole entry): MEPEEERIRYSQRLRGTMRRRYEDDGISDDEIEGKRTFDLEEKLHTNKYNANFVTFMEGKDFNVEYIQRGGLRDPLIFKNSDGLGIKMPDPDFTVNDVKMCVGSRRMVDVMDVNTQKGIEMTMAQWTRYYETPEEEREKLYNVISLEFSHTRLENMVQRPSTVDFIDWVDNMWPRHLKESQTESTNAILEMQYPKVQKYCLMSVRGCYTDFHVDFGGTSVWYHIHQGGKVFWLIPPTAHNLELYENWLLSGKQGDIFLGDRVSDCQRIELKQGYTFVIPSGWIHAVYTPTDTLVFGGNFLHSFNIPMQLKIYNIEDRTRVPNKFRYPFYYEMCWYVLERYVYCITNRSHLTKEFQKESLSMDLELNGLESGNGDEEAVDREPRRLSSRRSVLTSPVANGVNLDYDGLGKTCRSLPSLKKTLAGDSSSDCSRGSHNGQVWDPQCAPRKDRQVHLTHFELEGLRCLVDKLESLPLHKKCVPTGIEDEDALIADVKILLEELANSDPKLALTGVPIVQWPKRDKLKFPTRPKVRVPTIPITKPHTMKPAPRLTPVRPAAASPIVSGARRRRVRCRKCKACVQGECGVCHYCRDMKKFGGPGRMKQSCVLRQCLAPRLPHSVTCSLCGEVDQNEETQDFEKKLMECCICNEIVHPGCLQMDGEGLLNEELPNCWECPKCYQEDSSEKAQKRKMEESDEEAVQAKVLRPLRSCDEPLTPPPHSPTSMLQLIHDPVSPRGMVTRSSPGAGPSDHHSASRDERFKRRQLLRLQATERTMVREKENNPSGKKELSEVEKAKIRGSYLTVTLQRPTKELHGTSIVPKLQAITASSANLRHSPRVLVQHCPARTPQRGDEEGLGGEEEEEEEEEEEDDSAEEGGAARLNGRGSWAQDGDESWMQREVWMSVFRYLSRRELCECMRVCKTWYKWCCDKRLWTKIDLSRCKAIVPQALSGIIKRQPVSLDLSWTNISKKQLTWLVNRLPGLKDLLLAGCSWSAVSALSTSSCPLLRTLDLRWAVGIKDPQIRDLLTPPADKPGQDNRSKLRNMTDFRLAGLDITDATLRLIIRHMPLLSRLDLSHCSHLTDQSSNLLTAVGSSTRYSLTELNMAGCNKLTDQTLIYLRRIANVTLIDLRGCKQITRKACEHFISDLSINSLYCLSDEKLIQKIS
Chain of PHF8 (Q9UPP1 37-1060): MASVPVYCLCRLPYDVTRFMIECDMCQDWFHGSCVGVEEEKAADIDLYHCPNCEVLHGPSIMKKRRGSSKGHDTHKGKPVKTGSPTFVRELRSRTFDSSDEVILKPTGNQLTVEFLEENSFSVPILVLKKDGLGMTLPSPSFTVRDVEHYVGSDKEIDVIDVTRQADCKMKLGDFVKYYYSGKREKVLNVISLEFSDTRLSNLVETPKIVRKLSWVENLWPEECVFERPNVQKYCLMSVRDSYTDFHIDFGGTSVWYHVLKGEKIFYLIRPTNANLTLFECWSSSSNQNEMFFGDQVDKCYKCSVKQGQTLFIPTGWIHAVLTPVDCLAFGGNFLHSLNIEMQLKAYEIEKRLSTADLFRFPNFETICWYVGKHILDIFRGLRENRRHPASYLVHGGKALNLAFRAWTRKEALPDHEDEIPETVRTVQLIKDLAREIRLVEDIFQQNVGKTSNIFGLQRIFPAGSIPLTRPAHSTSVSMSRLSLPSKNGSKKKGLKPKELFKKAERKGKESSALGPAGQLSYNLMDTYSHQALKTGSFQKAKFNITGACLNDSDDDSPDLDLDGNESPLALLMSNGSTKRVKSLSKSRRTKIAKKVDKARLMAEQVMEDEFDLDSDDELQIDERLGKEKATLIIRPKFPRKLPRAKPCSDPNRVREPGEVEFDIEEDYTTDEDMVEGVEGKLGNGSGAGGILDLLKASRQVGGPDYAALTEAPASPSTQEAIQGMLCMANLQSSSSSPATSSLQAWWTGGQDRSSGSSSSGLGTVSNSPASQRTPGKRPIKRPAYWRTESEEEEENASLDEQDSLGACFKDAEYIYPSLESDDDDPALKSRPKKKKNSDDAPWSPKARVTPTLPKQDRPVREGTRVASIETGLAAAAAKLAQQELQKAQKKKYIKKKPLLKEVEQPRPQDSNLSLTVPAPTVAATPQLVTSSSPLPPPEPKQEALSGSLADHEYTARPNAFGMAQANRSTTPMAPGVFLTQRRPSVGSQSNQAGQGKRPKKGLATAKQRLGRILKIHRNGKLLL

Row | Compound | pIC50 (FBXL10) | pIC50 (FBXL11) | pIC50 (PHF8)
1 | c1ccc2c(c1)CCCC2Cn1cnc(-c2cc(-c3c[nH]nn3)ccn2)c1 (stereo not shown) [Example 8, 2-[1-(1,2,3,4-tetrahydronaphthalen-1-ylmethyl)imidazol-4-yl]-4-(1H-triazol-4-yl)pyridine] | ≥ 7.00 | ≥ 7.00 | 6.00 to 7.00
2 | Clc1ccccc1CCn1cnc(-c2cc(-c3c[nH]nn3)ccn2)c1 [Example 6, 2-[1-[2-(2-chlorophenyl)ethyl]imidazol-4-yl]-4-(1H-triazol-4-yl)pyridine] | ≥ 7.00 | ≥ 7.00 | ≥ 7.00
3 | Clc1cccc(Cn2cnc(-c3cc(-c4c[nH]nn4)ccn3)c2)c1Cl [Example 21, 2-[1-[(2,3-dichlorophenyl)methyl]imidazol-4-yl]-4-(1H-triazol-4-yl)pyridine] | ≥ 7.00 | ≥ 7.00 | 6.00 to 7.00
4 | CCOc1cc(-c2c(-c3cc(-c4c[nH]nn4)ccn3)ncn2C)ccc1F [Example 25, 2-[5-(3-ethoxy-4-fluorophenyl)-1-methylimidazol-4-yl]-4-(1H-triazol-4-yl)pyridine] | ≥ 7.00 | 6.00 to 7.00 | 5.00 to 6.00
5 | CCOc1ccccc1CCn1cnc(-c2cc(-c3c[nH]nn3)ccn2)c1 [Example 9, 2-[1-[2-(2-ethoxyphenyl)ethyl]imidazol-4-yl]-4-(1H-triazol-4-yl)pyridine] | ≥ 7.00 | ≥ 7.00 | 6.00 to 7.00

Other lines, results leading:

Row | pIC50 (FBXL10) | pIC50 (FBXL11) | pIC50 (PHF8) | Compound
6 | ≥ 7.00 | 6.00 to 7.00 | 6.00 to 7.00 | Clc1ccccc1Cn1cnc(-c2cc(-c3c[nH]nn3)ccn2)c1 [Example 2, 2-[1-[(2-chlorophenyl)methyl]imidazol-4-yl]-4-(1H-triazol-4-yl)pyridine]
7 | ≥ 7.00 | ≥ 7.00 | 6.00 to 7.00 | c1ccc2c(CCn3cnc(-c4cc(-c5c[nH]nn5)ccn4)c3)cccc2c1 [Example 23, 2-[1-(2-naphthalen-1-ylethyl)imidazol-4-yl]-4-(1H-triazol-4-yl)pyridine]
8 | ≥ 7.00 | ≥ 7.00 | 6.00 to 7.00 | CC(c1ccccc1)n1cnc(-c2cc(-c3c[nH]nn3)ccn2)c1 (stereo not shown) [Example 5, 2-[1-(1-phenylethyl)imidazol-4-yl]-4-(1H-triazol-4-yl)pyridine]
9 | ≥ 7.00 | ≥ 7.00 | 6.00 to 7.00 | FC(F)(F)c1cccc(Cn2cnc(-c3cc(-c4c[nH]nn4)ccn3)c2)c1Cl [Example 22, 2-[1-[[2-chloro-3-(trifluoromethyl)phenyl]methyl]imidazol-4-yl]-4-(1H-triazol-4-yl)pyridine]
10 | ≥ 7.00 | ≥ 7.00 | 6.00 to 7.00 | COc1ccccc1CCn1cnc(-c2cc(-c3c[nH]nn3)ccn2)c1 [Example 7, 2-[1-[2-(2-methoxyphenyl)ethyl]imidazol-4-yl]-4-(1H-triazol-4-yl)pyridine]
11 | ≥ 7.00 | ≥ 7.00 | 5.00 to 6.00 | Cn1cnc(-c2cc(-c3c[nH]nn3)ccn2)c1-c1ccc(F)cc1OCC1CC1 [Example 4, 2-[5-[2-(cyclopropylmethoxy)-4-fluorophenyl]-1-methylimidazol-4-yl]-4-(1H-triazol-4-yl)pyridine]
12 | ≥ 7.00 | – | 6.00 to 7.00 | COc1cc(-c2c(-c3cc(-c4c[nH]nn4)ccn3)ncn2C)ccc1F [Example 24, 2-[5-(4-fluoro-3-methoxyphenyl)-1-methylimidazol-4-yl]-4-(1H-triazol-4-yl)pyridine]
13 | ≥ 7.00 | – | 5.00 to 6.00 | N#Cc1[nH]nnc1-c1ccnc(-c2cn(Cc3cccc(Cl)c3Cl)cn2)c1 [Example 14, 4-[2-[1-[(2,3-dichlorophenyl)methyl]imidazol-4-yl]pyridin-4-yl]-1H-triazole-5-carbonitrile]
